Data published in US6602519B1, “Oxidized thymosin β4” (The University Court of the University of Glasgow, priority 1998, dated 2003).
“Also recorded” adds a separate entry of the source.

Key:
human neutrophils = test: Cell tracking assay (neutrophil locomotion); format: cell-based; conditions: uniform concentration
Procedure: Neutrophils were obtained as described by Chettibi et al. [1993]. Briefly, whole blood was mixed with 1:10 v/v of 5% dextran and allowed to sediment at 37° C. for 1 hour. The leucocyte rich plasma was layered over Nycoprep 1.077 and centrifuged at 750 g for 15 minutes. Erythrocytes in the resulting pellet were removed by hypotonic lysis and neutrophils were washed twice with balanced salt solution (BSS). The cells were checked for viability by trypan blue exclusion (generally greater than 96% viable).
Automated cell-tracking migration chambers were made as previously described [Chettibi et al., 1993] and placed on the stage of an inverted phase-contrast microscope within a temperature controlled (37° C.) transparent box and locomotion observed by means of a video camera connected to a monochrome monitor and also to an Acorn A5000 computer with a Watford video digitiser programmed to capture and analyze one frame every 5 seconds. Data was obtained from a maximum of 80 selected cells and used to calculate instantaneous speed, the 2-dimensional diffusion coefficient and the locomotion persistence time, using the described procedure to eliminate the contribution of systematic drift [Chettibi et al., 1994].

[1] = tested on: fMLP-induced chemotaxis of human neutrophils; test: Chemotaxis assay (modified Boyden chamber); format: cell-based; conditions: for chemotactic activity of the substance itself: Boyden chamber; for inhibition of chemotaxis to fMLP: substance in upper chamber, fMLP in lower chamber
Procedure: Filters (Sartorius membrane filter 3 μm pore) were cut and glued to a modified iml syringe barrel. 300 μl of 2×10^6/ml neutrophils were added to 300 μl antagonist and 200 μl of the suspension was added to the upper chamber (syringe barrel). The lower chamber (a 5 ml beaker), contained 3.6 ml of agonist. After 45 minutes, the cells were fixed in 70% ethanol for 5 minutes. This procedure also removes the filter from the syringe barrel by dissolving the glue. The filters were placed in a multi-well dish and treated as follows: distilled water for 2 minutes, Harris haematoxylin 1 minute, distilled water 1 min, Scotts Tap water (1:1 0.7% sodium bicarbonate:4% Magnesium sulphate (v/v) for 5 minutes, 70% ethanol 3 mins, 95% ethanol 3 minutes and 80%:20% ethanol:butanol (v/v) 5 minutes. The filters were cleared in xylene for 5 minutes, mounted in DEPEX and examined under bright field illumination with a 40× objective. Five randomly selected fields were counted for each filter.

[2] = tested on: Human umbilical vein endothelial cells (HUVEC); test: Scratch wound assay (endothelial sheet wound closure); format: cell-based
Procedure: Scratch wound assay: Human umbilical vein endothelial cells (HUVEC) were grown to confluency in multiwell dishes (Corning) and a scratch made across the diameter of each well with a sterile pipette tip. The resulting wound (approx. 1 mm) was then measured before the addition of Tβ4 or Tβ4so and at 45 min intervals.

[3] = tested on: carrageenan-induced footpad swelling; test: Carrageenan induced oedema test; format: in vivo, BALB/c mice; conditions: for reduction of carrageenan-induced oedema: 800 ng doses
Procedure: Induction of Inflammatory Response to Carrageenin: Groups of mice were injected subcutaneously in one hind paw with 300 μg carrageenin mixed the thymosin β4, native or sulphoxide in a final volume of 50 μl. Control animals were injected with the same volume of saline. Footpad swelling was measured using a spring-dial calliper, and expressed as the difference in swelling between the carrageenin-injected paw and the uninjected, contralateral paw. The animals were injected intraperitoneally (i.p.) With the same dose of thymosin β4, native or sulphoxide and footpad measurements made at 6, 24, 48 and 72 hours.

G-actin = conditions: high salt conditions; cited from earlier work

Row | Substance | dispersive locomotion of neutrophils (human neutrophils) | chemotactic activity of the substance itself [1] | potency of inhibition of chemotaxis relative to native Tβ4 ([1]; oxidised versus native peptide) | inhibition of chemotaxis to fMLP [1] | wound healing (closure rate of scratch on endothelial monolayer) [2] | potency in wound closure relative to native peptide ([2]; oxidised versus native peptide) | suppression of footpad swelling ([3]; 10 ng dose) | suppression of footpad swelling ([3]; 100 ng dose) | reduction of carrageenan-induced oedema [3] | suppression of footpad swelling ([3]; administration 30 minutes prior to, during and 6 hours after carrageenan, evident after 6 h, sustained up to 24 hours) | concentration needed to inhibit actin polymerisation relative to thymosin β4 (G-actin) [fold] | suppression of footpad swelling ([3]; 1000 ng dose)
1 | oxidised thymosin β4 [Tβ4so] | dispersive at low concentrations | neither was chemotactic | an order of magnitude more potent; also recorded: tenfold more inhibitory | both inhibited | promotes would healing | at least an order of magnitude higher potency | ineffective | ineffective | significantly reduced | significant suppression of swelling | 20 | –
2 | thymosin β4 (SDKPDMAEIEKFDKSKLKKTETQEKNPLPSKETIEQEKQAGES; UniProt P62328 2-44, looked up) [Tβ4, native, non-oxidised thymosin β4 prepared from human neutrophils by HPLC, reference compound] | did not give significant dispersive locomotion | neither was chemotactic | – | both inhibited | promotes would healing | – | – | – | only the oxidised peptide significantly reduced | – | – | ineffective
